{
  "source": "patent US8906889B2",
  "about": "“C-3 cycloalkenyl triterpenoids with HIV maturation inhibitory activity” (priority 2012, dated 2014)",
  "tested_on": "recombinant NL4-3 virus (Renilla luciferase, Gag P373S)",
  "test": "HIV cell culture assay (luciferase reporter, MT-2 cells)",
  "type": "cell-based",
  "conditions": "Renilla, NL43, MT-2 cells infected for 4-5 days with NLRluc recombinants; luciferase activity",
  "protocol": "MT-2 cells and 293T cells were obtained from the NIH AIDS Research and Reference Reagent Program. MT-2 cells were propagated in RPMI 1640 media supplemented with 10% heat inactivated fetal bovine serum, […]. The 293T cells were propagated in DMEM media supplemented with 10% heat inactivated fetal bovine serum (FBS), 100 units/ml penicillin G and 100 μg/ml streptomycin. The proviral DNA clone of NL4-3 was obtained from the NIH AIDS Research and Reference Reagent Program. A recombinant NL4-3 virus, in which a section of the nef gene from NL4-3 was replaced with the Renilla luciferase gene, was used as a reference virus. In addition, residue Gag P373 was converted to P373S. Briefly, the recombinant virus was prepared by transfection of the altered proviral clone of NL4-3. Transfections were performed in 293T cells using LipofectAMINE PLUS from Invitrogen (Carlsbad, Calif.), according to manufacturer's instruction. The virus was titered in MT-2 cells using luciferase enzyme activity as a marker. Luciferase was quantitated using the Dual Luciferase kit from Promega (Madison, Wis.), with modifications to the manufacturer's protocol. The diluted Passive Lysis solution was pre-mixed with the re-suspended Luciferase Assay Reagent and the re-suspended Stop & Glo Substrate (2:1:1 ratio). Fifty (50) μL of the mixture was added to each aspirated well on assay plates and luciferase activity was measured immediately on a Wallac TriLux (Perkin-Elmer). Antiviral activities of inhibitors toward the recombinant virus were quantified by measuring luciferase activity in cells infected for 4-5 days with NLRluc recombinants in the presence serial dilutions of the inhibitor.",
  "note": "Structures can show the parent of a compound that is named as a salt.",
  "data": [
    {"smiles": "C=C(C)[C@@H]1CC[C@]2(NCCN3CCS(=O)(=O)CC3)CC[C@]3(C)[C@H](CC[C@@H]4[C@@]5(C)CC=C(C6=CCC(C(=O)O)(C(=O)O)CC6)C(C)(C)[C@@H]5CC[C@]43C)[C@@H]12", "note": "[Example 7, 4-((1R,3aS,5aR,5bR,7aR,11aS,11bR,13aR,13bR)-3a-((2-(1,1-dioxidothiomorpholino)ethyl)amino)-5a,5b,8,8,11a-pentamethyl-1-(prop-1-en-2-yl)-2,3,3a,4,5,5a,5b,6,7,7a,8,11,11a,11b,12,13,13a,13b-octadecahydro-1H-cyclopenta[a]chrysen-9-yl)cyclohex-3-ene-1,1-dicarboxylic acid, TFA]", "values": [
      {"measurement": "EC50", "result": 100, "unit": "nM"}
    ]},
    {"smiles": "C=C(C)[C@@H]1CC[C@]2(NCCN3CCS(=O)(=O)CC3)CC[C@]3(C)[C@H](CC[C@@H]4[C@@]5(C)CC=C(C6=CCC(C#N)(C(=O)O)CC6)C(C)(C)[C@@H]5CC[C@]43C)[C@@H]12", "note": "(stereo partly drawn) [Example A5, 1-cyano-4-((1R,3aS,5aR,5bR,7aR,11aS,11bR,13aR,13bR)-3a-((2-(1,1-dioxidothiomorpholino)ethyl)amino)-5a,5b,8,8,11a-pentamethyl-1-(prop-1-en-2-yl)-2,3,3a,4,5,5a,5b,6,7,7a,8,11,11a,11b,12,13,13a,13b-octadecahydro-1H-cyclopenta[a]chrysen-9-yl)cyclohex-3-enecarboxylic acid]", "values": [
      {"measurement": "EC50", "result": 4.26, "unit": "nM"}
    ]},
    {"smiles": "C=C(C)[C@@H]1CC[C@]2(NCCN3CCC(S(C)(=O)=O)CC3)CC[C@]3(C)[C@H](CC[C@@H]4[C@@]5(C)CC=C(C6=CC7C(C6)C7C(=O)O)C(C)(C)[C@@H]5CC[C@]43C)[C@@H]12", "note": "(single isomer, unassigned) [Example A27]", "values": [
      {"measurement": "EC50", "result": 0.921, "unit": "nM"}
    ]},
    {"smiles": "C=C(C)[C@@H]1CC[C@]2(NCCN3CCS(=O)(=O)CC3)CC[C@]3(C)[C@H](CC[C@@H]4[C@@]5(C)CC=C(C6=CC7(C6)CC(C(=O)O)(C(=O)O)C7)C(C)(C)[C@@H]5CC[C@]43C)[C@@H]12", "note": "[Example 1, 6-((1R,3aS,5aR,5bR,7aR,11aS,11bR,13aR,13bR)-3a-((2-(1,1-dioxidothiomorpholino)ethyl)amino)-5a,5b,8,8,11a-pentamethyl-1-(prop-1-en-2-yl)-2,3,3a,4,5,5a,5b,6,7,7a,8,11,11a,11b,12,13,13a,13b-octadecahydro-1H-cyclopenta[a]chrysen-9-yl)spiro[3.3]hept-5-ene-2,2-dicarboxylic acid, HCl]", "values": [
      {"measurement": "EC50", "result": 10, "unit": "nM"}
    ]},
    {"smiles": "C=C(C)[C@@H]1CC[C@]2(NC(=O)OC(C)(C)C)CC[C@]3(C)[C@H](CC[C@@H]4[C@@]5(C)CC=C(C6=CC7(C6)CC(C(=O)O)(C(=O)O)C7)C(C)(C)[C@@H]5CC[C@]43C)[C@@H]12", "note": "[Example A1, 6-((1R,3aS,5aR,5bR,7aR,11aS,11bR,13aR,13bR)-3a-((tert-butoxycarbonyl)amino)-5a,5b,8,8,11a-pentamethyl-1-(prop-1-en-2-yl)-2,3,3a,4,5,5a,5b,6,7,7a,8,11,11a,11b,12,13,13a,13b-octadecahydro-1H-cyclopenta[a]chrysen-9-yl)spiro[3.3]hept-5-ene-2,2-dicarboxylic acid]", "values": [
      {"measurement": "EC50", "result": 570, "unit": "nM"}
    ]},
    {"smiles": "C=C(C)[C@@H]1CC[C@]2(NCCN3CCS(=O)(=O)CC3)CC[C@]3(C)[C@H](CC[C@@H]4[C@@]5(C)CC=C(C6=CCC(C(=O)O)CC6)C(C)(C)[C@@H]5CC[C@]43C)[C@@H]12", "note": "(stereo in doubt) [Example 9, (R)-4-((1R,3aS,5aR,5bR,7aR,11aS,11bR,13aR,13bR)-3a-((2-(1,1-dioxidothiomorpholino)ethyl)amino)-5a,5b,8,8,11a-pentamethyl-1-(prop-1-en-2-yl)-2,3,3a,4,5,5a,5b,6,7,7a,8,11,11a,11b,12,13,13a,13b-octadecahydro-1H-cyclopenta[a]chrysen-9-yl)cyclohex-3-enecarboxylic acid, TFA]", "values": [
      {"measurement": "EC50", "result": 0.892, "unit": "nM"}
    ]},
    {"smiles": "C=C(C)[C@@H]1CC[C@]2(C(=O)O)CC[C@]3(C)[C@H](CC[C@@H]4[C@@]5(C)CC=C(C6=CC7(C6)CC(C(=O)O)(C(=O)O)C7)C(C)(C)[C@@H]5CC[C@]43C)[C@@H]12", "note": "[Example 6, 6-((1R,3aS,5aR,5bR,7aR,11aS,11bR,13aR,13bR)-3a-carboxy-5a,5b,8,8,11a-pentamethyl-1-(prop-1-en-2-yl)-2,3,3a,4,5,5a,5b,6,7,7a,8,11,11a,11b,12,13,13a,13b-octadecahydro-1H-cyclopenta[a]chrysen-9-yl)spiro[3.3]hept-5-ene-2,2-dicarboxylic acid]", "values": [
      {"measurement": "EC50", "result": 30, "unit": "nM"}
    ]},
    {"smiles": "C=C(C)[C@@H]1CC[C@]2(NCCN3CCS(=O)(=O)CC3)CC[C@]3(C)[C@H](CC[C@@H]4[C@@]5(C)CC=C(C6=CC(CC(=O)O)CC6)C(C)(C)[C@@H]5CC[C@]43C)[C@@H]12", "note": "(mixture of isomers) [Example A15]", "values": [
      {"measurement": "EC50", "result": 0.547, "unit": "nM"}
    ]},
    {"smiles": "C=C(C)[C@@H]1CC[C@]2(NCCN3CCS(=O)(=O)CC3)CC[C@]3(C)[C@H](CC[C@@H]4[C@@]5(C)CC=C(C6=CC7(C6)CC(C(=O)O)C7)C(C)(C)[C@@H]5CC[C@]43C)[C@@H]12", "note": "(stereo partly drawn) [Example 3, 6-((1R,3aS,5aR,5bR,7aR,11aS,11bR,13aR,13bR)-3a-((2-(1,1-dioxidothiomorpholino)ethyl)amino)-5a,5b,8,8,11a-pentamethyl-1-(prop-1-en-2-yl)-2,3,3a,4,5,5a,5b,6,7,7a,8,11,11a,11b,12,13,13a,13b-octadecahydro-1H-cyclopenta[a]chrysen-9-yl)spiro[3.3]hept-5-ene-2-carboxylic acid, HCl]", "values": [
      {"measurement": "EC50", "result": 1.54, "unit": "nM"}
    ]},
    {"smiles": "C=C(C)[C@@H]1CC[C@]2(NCCN3CCC(S(C)(=O)=O)CC3)CC[C@]3(C)[C@H](CC[C@@H]4[C@@]5(C)CC=C(C6=CCC(Cl)(C(=O)O)CC6)C(C)(C)[C@@H]5CC[C@]43C)[C@@H]12", "note": "(mixture of isomers) [Example A8, 1-chloro-4-((1R,3aS,5aR,5bR,7aR,11aS,11bR,13aR,13bR)-5a,5b,8,8,11a-pentamethyl-3a-((2-(4-(methylsulfonyl)piperidin-1-yl)ethyl)amino)-1-(prop-1-en-2-yl)-2,3,3a,4,5,5a,5b,6,7,7a,8,11,11a,11b,12,13,13a,13b-octadecahydro-1H-cyclopenta[a]chrysen-9-yl)cyclohex-3-enecarboxylic acid]", "values": [
      {"measurement": "EC50", "result": 2.42, "unit": "nM"}
    ]},
    {"smiles": "C=C(C)[C@@H]1CC[C@]2(NCCN3CCS(=O)(=O)CC3)CC[C@]3(C)[C@H](CC[C@@H]4[C@@]5(C)CC=C(C6=CC(C(=O)O)CC6)C(C)(C)[C@@H]5CC[C@]43C)[C@@H]12", "note": "(stereo partly drawn) [Example A21, 3-((1R,3aS,5aR,5bR,7aR,11aS,11bR,13aR,13bR)-3a-((2-(1,1-dioxidothiomorpholino)ethyl)amino)-5a,5b,8,8,11a-pentamethyl-1-(prop-1-en-2-yl)-2,3,3a,4,5,5a,5b,6,7,7a,8,11,11a,11b,12,13,13a,13b-octadecahydro-1H-cyclopenta[a]chrysen-9-yl)cyclopent-2-enecarboxylic acid]", "values": [
      {"measurement": "EC50", "result": 2.76, "unit": "nM"}
    ]},
    {"smiles": "C=C(C)[C@@H]1CC[C@]2(NCCN3CCC(S(C)(=O)=O)CC3)CC[C@]3(C)[C@H](CC[C@@H]4[C@@]5(C)CC=C(C6=CC[C@@H](C(=O)O)CC6)C(C)(C)[C@@H]5CC[C@]43C)[C@@H]12", "note": "[Example 16, (S)-4-((1R,3aS,5aR,5bR,7aR,11aS,11bR,13aR,13bR)-5a,5b,8,8,11a-pentamethyl-3a-((2-(4-(methylsulfonyl)piperidin-1-yl)ethyl)amino)-1-(prop-1-en-2-yl)-2,3,3a,4,5,5a,5b,6,7,7a,8,11,11a,11b,12,13,13a,13b-octadecahydro-1H-cyclopenta[a]chrysen-9-yl)cyclohex-3-enecarboxylic acid, TFA]", "values": [
      {"measurement": "EC50", "result": 3.05, "unit": "nM"}
    ]},
    {"smiles": "C=C(C)[C@@H]1CC[C@]2(NCCO)CC[C@]3(C)[C@H](CC[C@@H]4[C@@]5(C)CC=C(C6=CCC(C(=O)O)CC6)C(C)(C)[C@@H]5CC[C@]43C)[C@@H]12", "note": "(stereo partly drawn) [Example 18, 4-((1R,3aS,5aR,5bR,7aR,11aS,11bR,13aR,13bR)-3a-((2-hydroxyethyl)amino)-5a,5b,8,8,11a-pentamethyl-1-(prop-1-en-2-yl)-2,3,3a,4,5,5a,5b,6,7,7a,8,11,11a,11b,12,13,13a,13b-octadecahydro-1H-cyclopenta[a]chrysen-9-yl)cyclohex-3-enecarboxylic acid, TFA]", "values": [
      {"measurement": "EC50", "result": 1.38, "unit": "nM"}
    ]},
    {"smiles": "C=C(C)[C@@H]1CC[C@]2(NCCN3CCC(S(C)(=O)=O)CC3)CC[C@]3(C)[C@H](CC[C@@H]4[C@@]5(C)CC=C(C6=CCC(CO)(C(=O)O)CC6)C(C)(C)[C@@H]5CC[C@]43C)[C@@H]12", "note": "(mixture of isomers) [Example A13, 1-(hydroxymethyl)-4-((1R,3aS,5aR,5bR,7aR,11aS,11bR,13aR,13bR)-5a,5b,8,8,11a-pentamethyl-3a-((2-(4-(methylsulfonyl)piperidin-1-yl)ethyl)amino)-1-(prop-1-en-2-yl)-2,3,3a,4,5,5a,5b,6,7,7a,8,11,11a,11b,12,13,13a,13b-octadecahydro-1H-cyclopenta[a]chrysen-9-yl)cyclohex-3-enecarboxylic acid]", "values": [
      {"measurement": "EC50", "result": 0.301, "unit": "nM"}
    ]}
  ]
}
